Patent publication US20220025419A1, “N-GLYCOSYLATION OF PEPTIDES AND PROTEINS” (priority 2013, published 2022)

Tests used:
[1] = target: T1, PglB (Campylobacter jejuni subsp. jejuni serotype O:2, UniProt Q0P9C8); details: glycolipid 1-200 μM, peptide 20 μM, PglB 0.44 μM, reaction time <2 h, duplicate
Procedure: Reaction mixtures were prepared as described above in Example 6 and incubated in a thermo cycler for 2 h at 30° C. Glycosylation was terminated by flash increasing of temperature to 95° C. for 2 minutes. Peptide mixtures were cleaned up and subjected to UPLC. The separation of the glycosylated peptide from unglycosylated was achieved by normal phase using Waters Acquity UPLC column (BEH glycan, 2.1×150 mm, 1.7-μm particles). Concentration of un- and glycosylated peptides was measured by calculating the area of corresponding peaks (FIG. 3.)

[2] = target: T1, PglB; test: Synthetic optimization of peptide glycosylation by PglB, HPLC/LC-MS conversion; assay type: biochemical; parameters: 10His (C); made in house; host or cells: E. coli Rosetta; details: peptide:glycolipid 1:5, RT overnight, HPLC peak areas, FIG. 2a
Procedure: To a 10 μL of purified PglB (40 μM) in 1.5 mL eppendorf tube was added 34 μL of buffer (HEPES 10 mM, pH 7.5 containing 1 mM MnCl2 and 1% Triton-X 100). […] For the gel analysis, 8 μL of reaction mixture was treated with 2 μL of 4X SDS sample buffer and heated to 90° C. for 5 minutes. Analytical HPLC was carried out on a Waters 2795 separation module HPLC instrument equipped with a Jasco FP-920 Intelligent Fluorescent Detector (Excitation at 542 nm, Emission at 572 nm). Phenomenex Jupiter 4μ proteo 90A (250×4.6 mm) column was used with a gradient of 0-20%, 20-45%, 45-95% Acetonitrile with 0.1% formic acid at a flow rate of 1 ml/min. Product eluted with a retention time of 6.6 min and identification was performed using the Micromass LCT (TOF ESI). Conversion of the reaction was quantified by integration of the respective peak areas of product and remaining starting peptide.

[3] = target: T1, PglB; test: In vitro glycosylation of AcrA protein by PglB, ES-MS analysis; assay type: biochemical; parameters: 10His (C); made in house; host or cells: E. coli Rosetta; details: AcrA-His6 129 pmol, glycolipid 25.6 nmol, 25° C., 36 hours
Text: Using the process described in Example 6a the two consensus Asn sites in the C. jejuni AcrA protein (overexpressed and purified from E. coli using pET24 (AcrA-Cys) according to the literature protocol [Kowarik, M. et. al., Science, 2006, 314, 1148-1150; Lazar, M. N. et. al., Glycobiology, 2005, 15 (4), 361-367]) were glycosylated using glycolipid substrates (Examples 2 and 4).

T1 sequence (Q0P9C8 whole entry): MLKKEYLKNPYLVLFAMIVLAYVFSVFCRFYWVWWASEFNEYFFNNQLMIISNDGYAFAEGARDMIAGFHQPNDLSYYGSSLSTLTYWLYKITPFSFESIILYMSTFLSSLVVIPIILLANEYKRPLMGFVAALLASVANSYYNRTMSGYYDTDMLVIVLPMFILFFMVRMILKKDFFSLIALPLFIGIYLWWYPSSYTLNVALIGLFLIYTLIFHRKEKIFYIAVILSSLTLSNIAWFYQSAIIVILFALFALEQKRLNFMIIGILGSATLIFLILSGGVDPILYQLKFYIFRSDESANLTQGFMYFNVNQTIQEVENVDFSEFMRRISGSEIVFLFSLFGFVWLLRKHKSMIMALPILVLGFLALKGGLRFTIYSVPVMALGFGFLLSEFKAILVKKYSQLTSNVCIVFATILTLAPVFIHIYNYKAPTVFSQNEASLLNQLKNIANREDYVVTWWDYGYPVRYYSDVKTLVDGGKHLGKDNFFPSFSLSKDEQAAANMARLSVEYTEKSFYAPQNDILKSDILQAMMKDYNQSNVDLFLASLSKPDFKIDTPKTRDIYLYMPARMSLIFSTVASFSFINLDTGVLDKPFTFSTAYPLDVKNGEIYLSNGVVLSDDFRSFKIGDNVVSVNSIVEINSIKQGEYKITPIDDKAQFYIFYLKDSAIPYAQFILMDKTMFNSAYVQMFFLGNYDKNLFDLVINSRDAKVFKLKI

Row | SMILES | Km [1] [µM] | kcat [1] [s⁻¹] | conversion, optimised glycosylation of TAMRA-peptide [2] [%] | conversion to the diglycosylated AcrA protein [3] [%]
1 | CC(=O)NC1[C@@H](OP(=O)([O-])OP(=O)([O-])OC/C=C(/C)CC/C=C(/C)CC/C=C(/C)CC/C=C(/C)CC/C=C(\C)CCC=C(C)C)OC(CO)[C@@H](O)[C@@H]1O.[Na+].[Na+] (stereo partly drawn) [Example 4, P^1-2-Acetamido-2-deoxy-α-D-glucopyranosyl P^2-(2Z,6Z,10Z,14Z,18E)-3,7,11,15,19,23-hexamethyltetraicosa-2,6,10,14,18,22-hexaen-1-yl diphosphate] | 55 ± 10 | 0.000385 ± 2.67e-05 | 92 | > 95
2 | CC(=O)NC1C(O)[C@H](O)C(CO)O[C@@H]1OP(=O)(O)OP(=O)(O)OC/C=C(/C)CC/C=C(/C)CC/C=C(/C)CC/C=C(/C)CC/C=C(/C)CC/C=C(\C)CC/C=C(\C)CCC=C(C)C (stereo partly drawn) [Comparative Example 5, P^1-2-Acetamido-2-deoxy-α-D-glucopyranosyl P^2-(2Z,6Z,10Z,14Z,18Z,22E,26E)-3,7,11,15,19,23,27,31-octamethyldotriaconta-2,6,10,14,18,22,26,30-octaen-1-yl diphosphate, reference compound] | 34 ± 10 | 0.000375 ± 3.5e-05 | – | –
3 | CC(=O)NC1[C@@H](OP(=O)(O)OP(=O)(O)OC/C=C(/C)CC/C=C(/C)CC/C=C(/C)CCC=C(C)C)OC(CO)[C@@H](O)[C@@H]1O (stereo partly drawn) [Example 1, P^1-2-Acetamido-2-deoxy-α-D-glucopyranosyl P^2-(2Z,6Z,10Z)-3,7,11,15-tetramethyl hexadeca-2,6,10,14-tetraen-1-yl diphosphate] | 77 ± 16 | 0.00039 ± 3.5e-05 | – | –
